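Five concentrations, 48 hours, 96-well plates. GI50 is the concentration that inhibits growth by half.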 Calls of active or inactive are those of the source. No stated cut-off is given here; in the data, active = GI50 up to about 1.1 µM and inactive = higher.
How the values were obtained:
Assay in all cases: NCI anticancer screen, dose series, 48 h
[1] = test system: 786-0
[2] = test system: A498
[3] = test system: A549
[4] = test system: ACHN
[5] = test system: CAKI-1
[6] = test system: COLO 205
[7] = test system: DLD-1
[8] = test system: DMS-114
[9] = test system: DMS-273
[10] = test system: EKVX
[11] = test system: HCC 2998
[12] = test system: HCT-116
[13] = test system: HCT-15
[14] = test system: HL-60
[15] = test system: HOP-18
[16] = test system: HOP-62
[17] = test system: HT-29
[18] = test system: IGROV-1
[19] = test system: K562
[20] = test system: KM-20L2
[21] = test system: KM12
[22] = test system: LXFL 529
[23] = test system: M14
[24] = test system: M19-MEL
[25] = test system: MOLT-4
[26] = test system: Malme-3M
[27] = test system: NCI-H226
[28] = test system: NCI-H23
[29] = test system: NCI-H460
[30] = test system: NCI-H522
[31] = test system: OVCAR-3
[32] = test system: OVCAR-4
[33] = test system: OVCAR-5
[34] = test system: OVCAR-8
[35] = test system: RPMI-8226
[36] = test system: RXF 393
[37] = test system: SF-268
[38] = test system: SF-295
[39] = test system: SF-539
[40] = test system: SK-MEL-2
[41] = test system: SK-MEL-5
[42] = test system: SK-OV-3
[43] = test system: SN12C
[44] = test system: SNB-19
[45] = test system: SNB-75
[46] = test system: SNB-78
[47] = test system: SR
[48] = test system: SW-620
[49] = test system: TK-10
[50] = test system: U-251
[51] = test system: UACC-257
[52] = test system: UACC-62
[53] = test system: UO-31
[54] = test system: XF498
[55] = test system: CCRF-CEM
[56] = test system: HOP-92
[57] = test system: SK-MEL-28
[58] = test system: LOX IMVI

Measured: GI50

CC(C)C(Nc1c2ccccc2[n+](C)c2ccccc12)C(=O)O (configuration not stated)
> 100 µM: [13]
inactive: [1] > 100 µM | [2] > 100 µM | [3] > 100 µM | [4] > 100 µM | [5] > 100 µM | [6] > 100 µM | [7] > 100 µM | [8] > 100 µM | [9] > 100 µM | [10] > 100 µM | [11] > 100 µM | [12] > 100 µM | [14] 99.5 µM | [15] > 100 µM | [16] > 100 µM | [17] > 100 µM | [18] > 100 µM | [19] > 100 µM | [20] > 100 µM | [21] > 100 µM | [22] > 100 µM | [23] > 100 µM | [24] > 100 µM | [25] > 100 µM | [26] > 100 µM | [27] > 100 µM | [28] > 100 µM | [29] > 100 µM | [30] 1.3 µM | [31] > 100 µM | [32] > 100 µM | [33] > 100 µM | [34] > 100 µM | [35] > 100 µM | [36] > 100 µM | [37] > 100 µM | [38] > 100 µM | [39] > 100 µM | [40] > 100 µM | [41] > 100 µM | [42] > 100 µM | [43] > 100 µM | [44] > 100 µM | [45] > 100 µM | [46] > 100 µM | [47] > 100 µM | [48] > 100 µM | [49] > 100 µM | [50] > 100 µM | [51] > 100 µM | [52] > 100 µM | [53] > 100 µM | [54] > 100 µM

CCOC(=O)C(=O)Nc1cccc(C)c1C
inactive: [2] > 100 µM | [3] > 100 µM | [4] > 100 µM | [5] > 100 µM | [55] > 100 µM | [6] > 100 µM | [7] > 100 µM | [8] > 100 µM | [9] > 100 µM | [10] > 100 µM | [11] > 100 µM | [12] > 100 µM | [14] > 100 µM | [15] > 100 µM | [16] > 100 µM | [56] > 100 µM | [17] > 100 µM | [18] > 100 µM | [19] > 100 µM | [20] > 100 µM | [21] > 100 µM | [22] > 100 µM | [23] > 100 µM | [24] > 100 µM | [25] > 100 µM | [26] > 100 µM | [27] > 100 µM | [28] > 100 µM | [29] > 100 µM | [30] > 100 µM | [31] > 100 µM | [32] > 100 µM | [33] > 100 µM | [34] > 100 µM | [35] > 100 µM | [37] > 100 µM | [38] > 100 µM | [39] > 100 µM | [57] > 100 µM | [40] > 100 µM | [41] > 100 µM | [42] > 100 µM | [43] > 100 µM | [44] > 100 µM | [45] > 100 µM | [46] > 100 µM | [47] > 100 µM | [48] > 100 µM | [49] > 100 µM | [50] > 100 µM | [51] > 100 µM | [52] > 100 µM | [53] > 100 µM | [54] > 100 µM
> 100 µM: [13]

N=C(NNS(=O)(=O)c1ccccc1)Oc1ccc(Cl)cc1
33.1 µM: [13]
inactive: [1] 44.3 µM | [2] > 100 µM | [3] > 100 µM | [4] > 100 µM | [5] > 100 µM | [55] 38.3 µM | [6] 35.4 µM | [7] 90.2 µM | [8] 69.5 µM | [9] > 100 µM | [10] > 100 µM | [11] > 100 µM | [12] 65.8 µM | [14] 21.1 µM | [15] > 100 µM | [16] > 100 µM | [56] > 100 µM | [17] > 100 µM | [18] > 100 µM | [19] 24.8 µM | [20] > 100 µM | [21] > 100 µM | [58] 48.3 µM | [22] 51.9 µM | [23] > 100 µM | [24] > 100 µM | [25] 68.5 µM | [26] > 100 µM | [27] > 100 µM | [28] > 100 µM | [29] > 100 µM | [30] > 100 µM | [31] 78.5 µM | [32] > 100 µM | [33] > 100 µM | [34] > 100 µM | [35] 70.1 µM | [36] 11.3 µM | [37] > 100 µM | [38] > 100 µM | [39] > 100 µM | [57] > 100 µM | [40] > 100 µM | [41] > 100 µM | [42] > 100 µM | [43] > 100 µM | [44] > 100 µM | [45] > 100 µM | [46] > 100 µM | [47] 43.1 µM | [48] 5.75 µM | [49] > 100 µM | [50] 60.3 µM | [51] > 100 µM | [52] 59.8 µM | [53] > 100 µM | [54] > 100 µM

CC(=O)c1ccccc1NC(=O)C(=O)C(C(=O)c1ccc2ccccc2c1)C1OC(=O)c2ccccc21 (configuration not stated)
13.7 µM: [13]
inactive: [1] 6.61 µM | [2] 15.2 µM | [3] 19.3 µM | [4] 31.8 µM | [5] 10.6 µM | [55] 4.42 µM | [6] 14.9 µM | [7] 12.2 µM | [8] 7.98 µM | [9] 6.32 µM | [10] 97.9 µM | [11] 4.72 µM | [12] 13.1 µM | [14] 9.91 µM | [15] 14.5 µM | [16] 10.7 µM | [56] 12.4 µM | [17] 34.8 µM | [18] 16.1 µM | [19] 9.04 µM | [20] 32.2 µM | [21] 18.3 µM | [58] 7.71 µM | [22] 9.79 µM | [23] 16.4 µM | [24] 8.85 µM | [25] 3.67 µM | [26] 3.7 µM | [27] 2.26 µM | [28] 6.49 µM | [29] 5.43 µM | [30] 10.7 µM | [31] 9.82 µM | [32] 17.2 µM | [33] 22.2 µM | [34] 11.6 µM | [35] 6.11 µM | [37] 9.27 µM | [39] 4.72 µM | [57] 11.3 µM | [40] 10.2 µM | [41] 11.4 µM | [42] 29.2 µM | [43] 13.7 µM | [44] 4.73 µM | [45] 8.95 µM | [46] 9.4 µM | [48] 7.83 µM | [49] 34 µM | [50] 6.75 µM | [51] 13.8 µM | [52] 13 µM | [53] 13.3 µM | [54] 3.13 µM

From ChEMBL document CHEMBL1201862, “PubChem BioAssay data set” (2004)
